Results published in patent US7371776B2, “Methods and compositions for treating cancer” (Mars, Incorporated, priority 2004, dated 2008).

Columns and labels:
Format in all cases: cell-based, human
184B5 cells = test: Crystal violet cellular proliferation assay; conditions: 100 μg/mL
Experimental: The 184B5 line is an immortalized, non-tumorogenic cell line derived from primary cultures of HMECs immortalized with benzo(a)pyrene (provided by Dr. M. R. Stampfer) and was maintained in Clonetics mammary epithelial cells medium (MEGM).
One×10^3 cells per well were seeded in 96 well dishes (Coming Costar, Cambridge, Mass.). Primary cultures of HMECs, A1N4 and 184B5 cells were evaluated at two different cell densities (seeded at 1×10^3 and 2×10^3 per well). After 24 hours of cell attachment, cells in triplicate wells were treated with pentamer at a concentration of 100 μg/mL. The cells on the same plate were treated with corresponding controls: (i) media containing DMSO, and (ii) media with no additions.
Cells were treated for 1, 2, 3, 6, 8 and 10 days, but in some cases, the samples were collected at days 2, 3, 4, 7 and 10 post-treatment. Each treatment was conducted in triplicate. Samples were collected at each time point as follows: media was removed and 50 μL of crystal violet solution (0.1% of crystal violet in 0.1 M citric acid solution) was added to each well at room temperature and plates were incubated for 15 minutes, followed by washing with deionized water. […] The optical density (OD) of samples was read at 550 nm on an Ultramark Microplate Imagining System (BioRad, Philadelphia, Pa.). […] Statistical significance was determined using the t test analysis.

AIN4 cells = test: Mitochondrial membrane potential depolarization (ApoAlert, flow cytometry)
Experimental: (§1) Mitochondrial membrane potential was determined using ApoAlert™ Mitochondrial Membrane Sensor Kit (Clonetech Inc., Palo Alto, Calif.). The MDA MB-231, MCF-7, MDA MB-468, MDA MB-436, SKBR-3, MCF-10A, MCF-10A-c-Myc and AIN4 cells were grown, in appropriate media, to 60-70% confluence in 25 cm^2 dishes. The following day, the complete media was replaced with complete media containing (i) pentamer (100 μg/mL, or in some cases with 25 μg/mL), (ii) media with DMSO, or (iii) media only. Initially, cells were grown in the presence of pentamer for 1, 2, 3, 6, 12 and 24 hrs but only 1, 2 and 6 hrs treatments were selected for subsequent studies. All floating and adherent cells were combined, and then the cells were aliquoted into flow cytometry tubes. Approximately, 1×10^6 cells per tube were analyzed, according to the manufacturer's instructions. Samples were analyzed at the Lombardi Comprehensive Cancer Center Core Flow Cytometry Shared Resource Facility.

MCF-10A cells = test: as above
Experimental: as §1

MCF-7 cells = test: as above; conditions: several attempts, different passages
Experimental: as §1

MDA MB-231 cells = test: as above
Experimental: as §1

MDA MB-436 cells = test: as above
Experimental: as §1

MDA MB-468 cells = test: as above
Experimental: as §1

SKBR-3 cells = test: as above
Experimental: as §1

Cdc2 = test: Confirmation of LPS results by immunoblotting, MDA MB-231 cells
Experimental: (§2) The proteins affected by pentamer, as detected by LPS, were analyzed further by immunoblotting. Antibodies against the following proteins were used: Cdc2 (Tyr15), FKHR (Ser256), p53 (Ser37, Ser46 and Ser392), PKC-δ (Ser643), PKC-θ (Ser643/676), pRb (Ser795 and Ser807/811), SAPK/JNK (Thr183/Tyr185) and Stat 5 (Tyr694) (all antibodies were obtained from Cell Signaling).
(§3) Protein pellets from pentamer-treated MDA MB-231, MDA MB-468 and MCF-7 cells and corresponding DMSO-treated controls were lysed in PBS with 1% SDS and sonicated for 15 seconds at a power of five watts. Samples were then centrifuged at 10,000 rpm and supernatants transferred into clean tubes. Protein concentration was determined as descried above. Ten jig of each protein sample was separated by PAGE on 4-20% gradient gels (BioRad, Philadelphia, Pa.). Gels were either transferred to PVDF membranes (BioRad) or P-FILM membrane (stacks of 10 membranes) according to the manufacturer's instructions (20/20 Gene Systems). PVDF membranes were blocked for 1 hour in 0.5% casein solution (Vector Laboratories, Burlingame, Calif.), prior to incubation with primary antibodies. […] The membranes were incubated overnight at 4° C. in 1:500 dilutions of primary antibodies, washed three times in TBST for five minutes, incubated in HRP-conjugated secondary antibodies, washed again and incubated in ECL Plus Reagent (Amersham). Signals were visualized on BIOMAX MR film (Kodak, Rochester, N.Y.). Following incubation with primary antibodies, membranes were incubated in anti-GAPDH antibody (1:500 dilution; Chemicon, Temecula, Calif.). The presence of this protein was visualized with secondary antibody conjugated to alkaline phosphatase DuoLux substrate (Vector Laboratories).
(§4) As a control, the PVDF membranes probed for Cdc2, FKHR, p53, and pRb were stripped according to manufacturer's instructions (Cell Signaling). After striping, membranes were washed four times for five minutes each in TBST buffer, blocked as described above, washed again and incubated in primary antibodies overnight at 4° C. The primary antibodies used were anti-total Cdc2 (1:1000 dilution, Cell Signaling), anti-total FKHR (1:1000 dilution, Cell Signaling), anti-endogenous p53 (1:1000, Cell Signaling) and anti-endogenous pRb (1:1000, Santa Cruz). The next day, membranes were washed and incubated in HRP conjugated secondary antibodies, washed again and incubated in ECL Plus Reagent (Amersham). Signals were detected as previously described. To test equality of loading, membranes were probed with anti-GAPDH antibody (1:500 dilution; Chemicon, Temecula, Calif.) as described above.

FKHR = test: as above
Experimental: as §2, §3, §4

p53 = test: as above
Experimental: as §2, §3, §4

[1] = pentamer-treated, average of three experiments
[2] = LPS analysis and PVDF membrane experiments

## Oc1cc(O)c2c(c1)O[C@H](c1ccc(O)c(O)c1)[C@H](O)[C@H]2c1c(O)cc(O)c2c1O[C@H](c1ccc(O)c(O)c1)[C@H](O)[C@H]2c1c(O)cc(O)c2c1O[C@H](c1ccc(O)c(O)c1)[C@H](O)[C@H]2c1c(O)cc(O)c2c1O[C@H](c1ccc(O)c(O)c1)[C@H](O)[C@H]2c1c(O)cc(O)c2c1O[C@H](c1ccc(O)c(O)c1)[C@H](O)C2 [pentamer, pentameric procyanidin]
184B5 cells
  day post-treatment at which significant sensitivity to pentamer was exhibited: 10 days
  growth inhibited, in comparison to DMSO-treated controls: 2.8 fold
AIN4 cells
  MMP depolarization, Fold Increase over DMSO: 3.2
AIN4 cells; [1]
  MMP depolarization (%): 20%
MCF-10A cells
  MMP depolarization, Fold Increase over DMSO: 2
MCF-10A cells; [1]
  MMP depolarization (%): 20%
MCF-7 cells
  depolarization of the mitochondrial membrane: depolarization could not be demonstrated
MDA MB-231 cells
  MMP depolarization, Fold Increase over DMSO: 14.5
MDA MB-231 cells; 100 μg/mL, 1, 2 and 6 hours
  depolarization of mitochondrial membrane, time course: time-dependent depolarization
MDA MB-231 cells; 25 and 100 μg/mL
  depolarization of mitochondrial membrane, dose response: dose-dependent response
MDA MB-231 cells; [1]
  MMP depolarization (%): 58%
MDA MB-436 cells
  MMP depolarization, Fold Increase over DMSO: 5.7
MDA MB-436 cells; [1]
  MMP depolarization (%): 50%
MDA MB-468 cells
  MMP depolarization, Fold Increase over DMSO: 5
MDA MB-468 cells; [1]
  MMP depolarization (%): 60%
SKBR-3 cells
  MMP depolarization, Fold Increase over DMSO: 2.5
SKBR-3 cells; [1]
  MMP depolarization (%): 25%
Cdc2; [2]
  total protein expression of Cdc2: not affected
Cdc2; immunoblot, 48 and 72 hrs
  effect on phosphorylated form of Cdc2 (Tyr15): had an effect
FKHR; [2]
  total protein expression of FKHR: not affected
FKHR; immunoblot, 48 and 72 hrs
  effect on phosphorylated form of FKHR (Ser256): had an effect
p53; [2]
  total protein expression of p53: not affected
p53; immunoblot, 72 hrs
  effect on phosphorylated form of p53 (Ser37, Ser46 and Ser392): had an effect
